# Assay results reported in patent US20080063643A1, “Peptide Derived From Hepatitis C Virus” (priority 2003, published 2008).
# Legend:
# [1] = tested on: peptide-specific IgG in the serum; assay: ELISA of peptide-specific IgG in sera of HCV patients and healthy donors (Example 1); type: binding, human; details: ELISA, cut-off value 1.83; for Healthy donors (n = 10) Positive n: number of 10 healthy donors with serum IgG reactive to the peptide; for HCV patients (n = 12) Positive n: number of 12 HCV patients with serum IgG reactive to the peptide; for Healthy donors (n = 10) Positive %: share of 10 healthy donors with serum IgG reactive to the peptide; for HCV patients (n = 12) Positive %: share of 12 HCV patients with serum IgG reactive to the peptide
# Description: Synthetic peptides having an HLA-A2-binding motif or an HLA-A24-binding motif from a conserved region of HCV genotype 1b protein were used in this study (Table 1). A peptide derived from HIV having an HLA-A2-binding motif was used as a negative control. All of these peptides were purchased from a commercially supplier. The purity was analyzed by reverse-phase high-pressure liquid chromatography and found to be 90% or higher.
# The level of the peptide-specific IgG in the serum was measured by ELISA. First, each peptide was dissolved in dimethyl sulfoxide (DMSO) and stored at −80° C. The peptide was diluted with 0.1 M sodium carbonate/sodium bicarbonate solution containing disuccinimidyl suberate (DSS) as a crosslinker. An ELISA plate was coated with 20 μg/well of peptide at 4° C. overnight. The wells were washed 3 times with 0.05% Tween 20/PBS (PBST), and the plate was blocked with Block Ace (registered trademark) and left overnight at 4° C. Plasma or serum samples were diluted in 1:100, 1:200 and 1:400 with 0.05% Tween 20/Block Ace, and 100 μl of each of the samples was added to each well. After the samples were incubated at 37° C. for 2 hours, the plate was washed 9 times with PBST, 100 μl of a 1:1000 diluted rabbit anti-human IgG (γ-chain specific) was added to each well, and incubated at 37° C. for 2 hours. The plate was washed 9 times with PBST, and 100 μl of 1:100 diluted mouse anti-rabbit IgG conjugated to a horseradish peroxidase-dextran polymer was added to each well, and then the plate was incubated at room temperature for 40 minutes. After the plate was washed, 100 μl of a tetramethylbenzidine substrate solution was added to each well. The reaction was stopped by the addition of 2.0 M phosphoric acid. The cutoff value was calculated as the mean±3 SD of the optical density values of the control obtained from the healthy donors.
# The level of IgG that reacts with each of the 62 types of peptides was measured in the sera from 12 patients infected with HCV and 10 healthy donors (HDs) (Table 1).
# peptide-specific IgG = assay: ELISA screening of peptide-reactive IgG in plasma of 12 HCV-1b patients and 10 HDs (Example 2); type: binding, human; details: plasma dilution 1:100; for Reactivity to peptide-specific IgG HD (n = 10): number of 10 HDs above cut-off 0.18 OD; for Reactivity to peptide-specific IgG Patients (n = 12): number of 12 HCV-1b+ patients above cut-off 0.18 OD
# Description: Forty-four types of synthetic peptides that were derived from a highly conserved region of HCV-1b protein and selected based on a high binding score to HLA-A24 molecule (Bioinformatics and Molecular Analysis Section, NIH, Bethesda, Md.) were used. A peptide derived from HIV that has an HLA-A24 binding motif ([…] (SEQ ID NO: 63)) served as a negative control. For the screening of the reactivity of peptide to serum IgG, desalted grade of the peptides (>70%) were purchased from BioSynthesis (Lewisville, Tex.) or SynPep (Dublin, Calif.). A purified peptide (>90%) was used in the subsequent experiments. The plasma level of peptide-specific IgG was measured by an enzyme-linked immunosorbent assay (ELISA). The specificity of anti-peptide IgG in a plasma sample was tested by the absorption and elution of peptide-reactive IgG.
# In order to screen for a humoral response to the peptides, the level of IgG reactive to each of the 44 types of peptides was assayed in the plasma of 12 patients infected with HCV-1b. The plasma of 10 HDs was used as a negative control. The level of peptide-reactive IgG was measured by ELISA for serially diluted plasma samples and reported by the values of absorbance (OD) of each sample. The cut-off value of these peptides at a plasma dilution of 1:100 was set at 0.18 OD (mean (0.08)+2SD (0.05×2) of 10 HDs). A significant level (>0.18 OD at a plasma dilution of 1:100) of IgG reactive to NS5A-2132, C-176, E2-488, E1-213, C-173 and NS3-1081 peptides were detectable in the plasma of 12, 11, 10, 9, 8 and 5 patients among the 12 patients, respectively (FIG. 9). As expected, none of these peptides was reactive to the plasma from the 10 HDs.
Substance,Healthy donors (n = 10) Positive n [1],HCV patients (n = 12) Positive n [1],Healthy donors (n = 10) Positive % [1],HCV patients (n = 12) Positive % [1],Reactivity to peptide-specific IgG HD (n = 10) (peptide-specific IgG),Reactivity to peptide-specific IgG Patients (n = 12) (peptide-specific IgG)
57 (NLPGCSFSI; Hepatitis C Virus) [Peptide 57],1,0,10%,0%,–,–
61 (HYRDVLKEM; Hepatitis C Virus) [Peptide 61],1,3,10%,25%,–,–
62 (WFMWCLLLL; Hepatitis C Virus) [Peptide 62],0,7,0%,58%,–,–
66 (QFKQKALGLL; Hepatitis C Virus) [Peptide 66],0,3,0%,25%,–,–
AFTASITSPL [No. 35],–,–,–,–,0,0
AFYGVWPLL [No. 63],–,–,–,–,0,0
AYAAQGYKVL [No. 24],–,–,–,–,0,2
AYALYGVWPL [No. 26],–,–,–,–,0,2
AYMSKAHGI [No. 11],–,–,–,–,0,2
AYSQQTRGL [No. 8],–,–,–,–,0,0
DFKTWLQSKL [No. 36],–,–,–,–,0,1
EFWESVFTGL [No. 31],–,–,–,–,0,0
EYVLLLFLL [No. 4],–,–,–,–,0,2
FFTEVDGVRL [No. 37],–,–,–,–,0,1
GYGAGVAGAL [No. 23],–,–,–,–,0,2
GYIPIVGAPL [No. 19],–,–,–,–,0,1
HYKLFLARL [No. 9],–,–,–,–,0,0
HYPCTVNFTI [No. 27],–,–,–,–,0,2
HYRDVLKEM [No. 61],–,–,–,–,1,3
HYVQMALMKL [No. 21],–,–,–,–,0,3
IFTITKILL [No. 18],–,–,–,–,0,3

Substance,Healthy donors (n = 10) Positive n [1],HCV patients (n = 12) Positive n [1],Healthy donors (n = 10) Positive % [1],HCV patients (n = 12) Positive % [1],Reactivity to peptide-specific IgG HD (n = 10) (peptide-specific IgG),Reactivity to peptide-specific IgG Patients (n = 12) (peptide-specific IgG)
LFLARLIWWL [No. 33],–,–,–,–,0,0
LYGVWPLLL [No. 7],–,–,–,–,0,0
MYTNVDQDL [No. 5],–,–,–,–,0,0
MYVGGVEHRL [No. 20],–,–,–,–,0,0
NFISGIQYL [No. 15],–,–,–,–,0,0
PYFVRAHGL [No. 16],–,–,–,–,0,0
PYIEQGMQL [No. 14],–,–,–,–,0,1
QFKQKAIGL [No. 17],–,–,–,–,0,3
QFKQKALGL [No. 64],–,–,–,–,0,1
QFKQKALGLL [No. 66],–,–,–,–,0,1
QYLAGLSTL [No. 6],–,–,–,–,0,0
QYSPGQRVEF [No. 65],–,–,–,–,0,0
SFAIKWEYVL [No. 39],–,–,–,–,0,1
SYTWTGALI [No. 60],–,–,–,–,0,0
TFLVGLNQYL [No. 29],–,–,–,–,0,2
TYATYGKFL [No. 10],–,–,–,–,0,1
TYVYDHLTPL [No. 22],–,–,–,–,0,2
VFVGLILLTL [No. 30],–,–,–,–,0,2
WFMWCLLLL [No. 62],–,–,–,–,0,3
YFITRAEAHL [No. 34],–,–,–,–,1,1
YYRGLDVSVI [No. 28],–,–,–,–,0,2
